For this assay, the system named is L1210 leukemia ip in BDF1 mice, survival T/C. In words: NCI In Vivo Anticancer Drug Screen. Data for tumor model L1210 Leukemia (intraperitoneal) in B6D2F1 (BDF1) mice. The settings on record: endpoint: mean survival time, higher = longer survival. An outline of the steps:
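Survival endpoint. Drug-treated group vs vehicle group, expressed as T divided by C. Tumor passaged by transplantation.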

[1] abbreviates: dose: 100.0 mg/kg/injection, schedule: Q01DX009 (ip), vehicle: saline with Tween-80.

Each structure is given as a SMILES string. “And” between values parts separate entries of the source, which are not always exact repeats. Equal values may be shown once. Inconclusive results and toxic doses are left out.

As to `Cc1c2oc3c(C)ccc(C(=O)NC4C(=O)NC(C(C)C)C(=O)N5CCCC5C(=O)N(C)CC(=O)N(C)C(C(C)C)C(=O)OC4C)c3nc-2c(C(=O)NC2C(=O)NC(C(C)C)C(=O)N3CCCC3C(=O)N(C)CC(=O)N(C)C(C(C)C)C(=O)OC2C)c(NCCCO)c1=O` (stereo not drawn), the T/C reads like this: (dose: 0.07 mg/kg/injection, schedule: Q04DX003 (ip), vehicle: saline + alcohol) 95 % of control; (dose: 0.1 mg/kg/injection, schedule: Q01DX009 (ip), vehicle: saline + alcohol) 116 % of control; (dose: 0.15 mg/kg/injection, schedule: Q04DX003 (ip), vehicle: saline + alcohol) 107 % of control; (dose: 0.2 mg/kg/injection, schedule: Q01DX001 (ip), vehicle: saline + alcohol) 106 % of control; (dose: 0.3 mg/kg/injection, schedule: Q04DX003 (ip), vehicle: saline + alcohol) 108 % of control; (dose: 0.4 mg/kg/injection, schedule: Q01DX001 (ip), vehicle: saline + alcohol) 107 % of control. Further, the T/C reads like this: (dose: 0.6 mg/kg/injection, schedule: Q04DX003 (ip), vehicle: saline + alcohol) 114 % of control; (dose: 0.62 mg/kg/injection, schedule: Q04DX003 (ip), vehicle: saline + alcohol) 111 % of control; (dose: 0.8 mg/kg/injection, schedule: Q01DX001 (ip), vehicle: saline + alcohol) 103 % of control; (dose: 1.0 mg/kg/injection, schedule: Q01DX001 (ip), vehicle: saline + alcohol) 112 % of control; (dose: 1.25 mg/kg/injection, schedule: Q04DX003 (ip), vehicle: saline + alcohol) 121 % of control; (dose: 1.6 mg/kg/injection, schedule: Q01DX001 (ip), vehicle: saline + alcohol) 95 % of control. The T/C is, setting by setting: (dose: 2.0 mg/kg/injection, schedule: Q01DX001 (ip), vehicle: saline + alcohol) 121 % of control; (dose: 3.2 mg/kg/injection, schedule: Q01DX001 (ip), vehicle: saline + alcohol) 104 % of control; (dose: 4.0 mg/kg/injection, schedule: Q01DX001 (ip), vehicle: saline + alcohol) 121 % of control; (dose: 5.0 mg/kg/injection, schedule: Q04DX003 (ip), vehicle: saline + alcohol) 160 % of control; (dose: 12.5 micrograms/kg/injection, schedule: Q01DX009 (ip), vehicle: saline + alcohol) 101 % of control and 116 % of control; (dose: 25.0 micrograms/kg/injection, schedule: Q01DX009 (ip), vehicle: saline + alcohol) 98 % of control. Besides, for the setting “dose: 50.0 micrograms/kg/injection, schedule: Q01DX009 (ip), vehicle: saline + alcohol”, the T/C was 106 % of control.
Regarding `Cc1nc(C(N)=O)c(=O)[nH]c1C`, the T/C was 95 % of control (dose: 6.25 mg/kg/injection, schedule: Q04DX003 (ip), vehicle: saline); 97 % of control (dose: 12.5 mg/kg/injection, schedule: Q04DX003 (ip), vehicle: saline); 94 % of control (dose: 25.0 mg/kg/injection, schedule: Q04DX003 (ip), vehicle: saline); 101 % of control (dose: 50.0 mg/kg/injection, schedule: Q04DX003 (ip), vehicle: saline); 102 % of control (dose: 100.0 mg/kg/injection, schedule: Q04DX003 (ip), vehicle: Klucel (hydroxypropylcellulose) (HPC)); 100 % of control (dose: 200.0 mg/kg/injection, schedule: Q04DX003 (ip), vehicle: Klucel (hydroxypropylcellulose) (HPC)). Besides, the T/C (dose: 400.0 mg/kg/injection, schedule: Q04DX003 (ip), vehicle: Klucel (hydroxypropylcellulose) (HPC)) is 100 % of control.
With `CC1(C)N=C(N)N=C(N)N1c1ccc(OCC(=O)Nc2ccc(S(=O)(=O)F)cc2)cc1`, the T/C was 101 % of control (dose: 0.8 mg/kg/injection, schedule: Q01DX009 (ip), vehicle: saline); 103 % of control (dose: 4.0 mg/kg/injection, schedule: Q01DX009 (ip), vehicle: saline); 112 % of control (dose: 20.0 mg/kg/injection, schedule: Q01DX009 (ip), vehicle: saline).
With `COc1ccc(CCNC(=S)NCCc2ccc(OC)c(OC)c2)cc1OC`, the T/C runs as follows: (dose: 25.0 mg/kg/injection, schedule: Q01DX009 (ip), vehicle: saline) 100 % of control; (dose: 50.0 mg/kg/injection, schedule: Q01DX009 (ip), vehicle: saline) 92 % of control; (dose: 100.0 mg/kg/injection, schedule: Q01DX009 (ip), vehicle: saline) 98 % of control; (dose: 100.0 mg/kg/injection, schedule: Q04DX003 (ip), vehicle: saline) 86 % of control; (dose: 200.0 mg/kg/injection, schedule: Q01DX009 (ip), vehicle: saline) 92 % of control; (dose: 200.0 mg/kg/injection, schedule: Q04DX003 (ip), vehicle: saline) 86 % of control.
As for `Cc1ccc(Cl)c(NC(=O)COc2ccc(Cl)cc2)c1`, the T/C reads like this: (dose: 100.0 mg/kg/injection, schedule: Q01DX009 (ip), vehicle: Klucel (hydroxypropylcellulose) (HPC)) 93 % of control; (dose: 200.0 mg/kg/injection, schedule: Q01DX009 (ip), vehicle: Klucel (hydroxypropylcellulose) (HPC)) 94 % of control; (dose: 400.0 mg/kg/injection, schedule: Q01DX009 (ip), vehicle: Klucel (hydroxypropylcellulose) (HPC)) 94 % of control.
As to `O=C(Sc1cccc(Br)c1)c1ccccc1`, the T/C (dose: 100.0 mg/kg/injection, schedule: Q01DX001 (ip), vehicle: other) was 100 % of control; the T/C (dose: 200.0 mg/kg/injection, schedule: Q01DX001 (ip), vehicle: other) is 95 % of control; the T/C (dose: 400.0 mg/kg/injection, schedule: Q01DX001 (ip), vehicle: other) is 94 % of control.
Turning to `CCOC(=O)c1ccc(NC(=O)c2ccc(F)cc2)cc1`, the T/C was 97 % of control and 105 % of control (dose: 100.0 mg/kg/injection, schedule: Q01DX001 (ip), vehicle: carboxymethylcellulose (CMC)); 103 % of control and 105 % of control (dose: 100.0 mg/kg/injection, schedule: Q01DX009 (ip), vehicle: carboxymethylcellulose (CMC)); 96 % of control and 97 % of control (dose: 100.0 mg/kg/injection, schedule: Q04DX002 (ip), vehicle: carboxymethylcellulose (CMC)); 94 % of control and 98 % of control (dose: 100.0 mg/kg/injection, schedule: Q04DX003 (ip), vehicle: carboxymethylcellulose (CMC)); 101 % of control and 91 % of control (dose: 200.0 mg/kg/injection, schedule: Q01DX001 (ip), vehicle: carboxymethylcellulose (CMC)); 94 % of control and 91 % of control (dose: 200.0 mg/kg/injection, schedule: Q01DX009 (ip), vehicle: carboxymethylcellulose (CMC)). For the same compound, the T/C was 97 % of control and 100 % of control (dose: 200.0 mg/kg/injection, schedule: Q04DX002 (ip), vehicle: carboxymethylcellulose (CMC)); 95 % of control and 91 % of control (dose: 200.0 mg/kg/injection, schedule: Q04DX003 (ip), vehicle: carboxymethylcellulose (CMC)); 96 % of control and 90 % of control (dose: 400.0 mg/kg/injection, schedule: Q01DX001 (ip), vehicle: carboxymethylcellulose (CMC)); 93 % of control and 106 % of control (dose: 400.0 mg/kg/injection, schedule: Q01DX009 (ip), vehicle: carboxymethylcellulose (CMC)); 92 % of control and 90 % of control (dose: 400.0 mg/kg/injection, schedule: Q04DX002 (ip), vehicle: carboxymethylcellulose (CMC)); 100 % of control and 91 % of control (dose: 400.0 mg/kg/injection, schedule: Q04DX003 (ip), vehicle: carboxymethylcellulose (CMC)).
On to `COC(=O)CC(=O)C=P(c1ccccc1)(c1ccccc1)c1ccccc1`, for which the T/C (dose: 12.5 mg/kg/injection, schedule: Q01DX009 (ip), vehicle: saline with Tween-80) is 98 % of control; the T/C (dose: 25.0 mg/kg/injection, schedule: Q01DX009 (ip), vehicle: saline with Tween-80) was 101 % of control; the T/C (dose: 50.0 mg/kg/injection, schedule: Q01DX009 (ip), vehicle: saline with Tween-80) is 95 % of control; the T/C (dose: 75.0 mg/kg/injection, schedule: Q01DX001 (ip), vehicle: saline) is 96 % of control; the T/C under setting [1] was 89 % of control; the T/C (dose: 150.0 mg/kg/injection, schedule: Q01DX001 (ip), vehicle: saline) was 100 % of control. Also, the T/C (dose: 300.0 mg/kg/injection, schedule: Q01DX001 (ip), vehicle: saline) is 93 % of control.
As for `C1=C(c2ccccc2)N(C2CCCCC2)C(c2ccccc2)=CN1Cc1ccccc1`, the T/C (dose: 100.0 mg/kg/injection, schedule: Q04DX002 (ip), vehicle: Klucel (hydroxypropylcellulose) (HPC)) is 92 % of control and the T/C (dose: 200.0 mg/kg/injection, schedule: Q04DX002 (ip), vehicle: Klucel (hydroxypropylcellulose) (HPC)) is 92 % of control.
As for `CC(=O)NCC(=O)c1ccc(Cl)cc1`, the T/C was 103 % of control under setting [1]; 102 % of control (dose: 100.0 mg/kg/injection, schedule: Q04DX003 (ip), vehicle: saline with Tween-80); 104 % of control (dose: 200.0 mg/kg/injection, schedule: Q01DX009 (ip), vehicle: saline with Tween-80); 102 % of control (dose: 200.0 mg/kg/injection, schedule: Q04DX003 (ip), vehicle: saline with Tween-80); 121 % of control (dose: 400.0 mg/kg/injection, schedule: Q01DX009 (ip), vehicle: saline with Tween-80); 96 % of control (dose: 400.0 mg/kg/injection, schedule: Q04DX003 (ip), vehicle: saline with Tween-80).

Values taken from PubChem BioAssay AID248 (DTP/NCI, 2004).
